Here are results for eight molecules from patent US20040248879A1, “Salts of tricyclic inhibitors of poly(ADP-ribose) polymerases” (Agouron Pharmaceuticals, Inc., priority 2003, published 2004).

Usually solubility stands for how much of the substance goes into solution per volume. High values mean much dissolved substance, low ones little dissolved substance. The term Solubility denotes the dissolved amount per volume that the medium holds.

The nature of one series: Water Solubility Assay. It is filed as physicochemical. To be noted: Milli Q water, room temperature, stirred 3 hours, HPLC; for solubility at 3 h: water, thermodynamic from solid. The protocol:
The sample suspension was stirred at room temperature for 3 hours. The suspension was transferred into an eppendorf vial and centrifuged at 14000 rpm for 8 minutes. The supernant solution was then assayed by HPLC.
The suspension was stirred at room temperature for 3 hours and then centrifuged at 14000/min for 8 minutes. The supernant was diluted 10 times by Milli Q water. The final solution was then assayed by HPLC.
Accurately weigh out 2.5-3.0 mg of AG014447 reference standard into 10 ml volumetric flask, and then bring to volume with MeOH. Mix thoroughly.
Buffer: 25 mM ammonium phosphate buffer (pH 2.5)
Organic Modifier: Acetonitrile (ACN)
Column: Waters Symmetry C18, 4.6×150 mm, 5 μm;
The solubility of the sample is calculated by the equation below: […]
Where A is the peak area of the sample; As is the peak area of the standard; Cs is the concentration of the standard solution; D is the dilution factor. [drawing 2]

The test system of the next series is A549 cells. Description: Cytotoxicity Potentiation Assay. To be noted: test compound 0.4 μm, with topotecan, ratio of IC50 of topotecan alone to IC50 in combination. It is filed as cell-based.

Each structure is given as a SMILES string. ≈ marks a conversion by molar mass, not a printed value. A value given as a limit tells only on which side of the number the result lay.

Experimental for A549 cells: Cytotoxicity Potentiation Assay: A549 cells (ATCC, Rockville, Md.) were seeded into 96-well cell culture plates (Falcon brand, Fisher Scientific, Pittsburgh, Pa.) 16 to 24 hours before experimental manipulation. Cells were then treated with a test compound (or a combination of test compounds where indicated) for either 3 days or 5 days, at a concentration of 0.4 μm. At the end of treatments, relative cell number was determined either by MTT assay or SRB assay. For the MTT assay, 0.2 μg/μl of MTT (3-(4,5-dimethylthiazol-2-yl)-2,5-diphenyltetrazolium bromide, Sigma Chemical Co., St. Louis, Mo.) was added to each well of a plate, and the plate was incubated in a cell-culture incubator for 4 hours. Metabolized MTT in each well was solubilized in 150 μl of DMSO (Sigma Chemical Co.) with shaking and quantified with a Wallac 1420 Victor plate reader (EG&G Wallac, Gaithersburg, Md.) at 540 nm. For the SRB assay, cells were fixed with 10% trichloroacetic acid (Sigma Chemical Co) for an hour at 4° C. […] The bound dye was measured photometrically with the Wallac Victor plate reader at 515 nm. The ratio of the OD (optical density) value of a compound-treated culture to the OD value of a mock-treated culture, expressed in percentage, was used to quantify the cytotoxicity of a compound. […] For the compounds of the invention, PF50 values were determined by testing with topotecan.

For `CC(=O)O.CNCc1ccc(-c2[nH]c3cc(F)cc4c3c2CCNC4=O)cc1` [Acetate, 8-fluoro-2-(4-methylaminomethyl-phenyl)-1,3,4,5-tetrahydro-azepino[5,4,3-cd]indol-6-one Acetate], in “Water Solubility Assay”, the solubility at 3 h was 8800 µg/mL. As to `CNCc1ccc(-c2[nH]c3cc(F)cc4c3c2CCNC4=O)cc1` [Free base, 8-fluoro-2-(4-methylaminomethyl-phenyl)-1,3,4,5-tetrahydro-azepino[5,4,3-cd]indol-6-one], in the series with A549 cells, the “Cytotoxicity Potentiation PF50” value is reported as 2.4. The molecule further returned a Solubility in “Water Solubility Assay” of 180 µg/mL (≈ 0.557 mM).

With `CNCc1ccc(-c2[nH]c3cc(F)cc4c3c2CCNC4=O)cc1` [Gluconate, 8-Fluoro-2-(4-methylaminomethyl-phenyl)-1,3,4,5-tetrahydro-azepino[5,4,3-cd]indol-6-one Gluconate], the Solubility in “Water Solubility Assay” is more than 128000 µg/mL. In turn, `CNCc1ccc(-c2[nH]c3cc(F)cc4c3c2CCNC4=O)cc1` [Glucuronate, 8-Fluoro-2-(4-methylaminomethyl-phenyl)-1,3,4,5-tetrahydro-azepino[5,4,3-cd]indol-6-one Glucuronate] yielded a Solubility in “Water Solubility Assay” of 89000 µg/mL (≈ 275 mM). In “Water Solubility Assay”, `CNCc1ccc(-c2[nH]c3cc(F)cc4c3c2CCNC4=O)cc1.Cl` [Hydrochloride, 8-Fluoro-2-(4-methylaminomethyl-phenyl)-1,3,4,5-tetrahydro-azepino[5,4,3-cd]indol-6-one Hydrochloride] came in with a solubility at 3 h of 1600 µg/mL.

`CNCc1ccc(-c2[nH]c3cc(F)cc4c3c2CCNC4=O)cc1.CS(=O)(=O)O` [Mesylate, 8-Fluoro-2-(4-methylaminomethyl-phenyl)-1,3,4,5-tetrahydro-azepino[5,4,3-cd]indol-6-one Mesylate] showed a solubility at 3 h in the series “Water Solubility Assay” of 15500 µg/mL. `CNCc1ccc(-c2[nH]c3cc(F)cc4c3c2CCNC4=O)cc1` [Phosphate, 8-Fluoro-2-(4-methylaminomethyl-phenyl)-1,3,4,5-tetrahydro-azepino[5,4,3-cd]indol-6-one Phosphate] returned a Solubility in the series “Water Solubility Assay” (Phosphate) of 2800 µg/mL.

Molecule `CNCc1ccc(-c2[nH]c3cc(F)cc4c3c2CCNC4=O)cc1.O=C(O)C(O)C(O)C(=O)O` [Tartrate, 8-Fluoro-2-(4-methylaminomethyl-phenyl)-1,3,4,5-tetrahydro-azepino[5,4,3-cd]indol-6-one Tartrate] yielded a solubility at 3 h in the series “Water Solubility Assay” of 1100 µg/mL.
